Test: in vitro
Details: microsomes; for % remaining #1 / % remaining #2 / Ln (% remaining) #1 / Ln (% remaining) #2 / Mean Ln(% remaining): 1 μM, pH 7.4; for microsomal CLint at 1 μM: pH 7.4, CLint; for half-life at 1 μM: pH 7.4, T1/2
Method: The liver microsomes of mouse, rat, dog, monkey and human were purchased from Corning Inc., and were stored at −60° C. prior to use. The acetonitrile and NADPH were purchased from Honeywell International Inc. (New Jersey, U.S.) and Roche Inc. (Basel, Swiss).
Reactions were initiated by adding NADPH to a final concentration of 1 mM. The final volume of each reaction mixture was 0.2 ml, and all reactions were performed in duplicate. At each set time point (0, 5, 15, 30 and 60 min), a small aliquot (e.g., 20 μl) was transferred from the reaction system into ice-cold internal standard (IS) containing acetonitrile to quench the reaction and to precipitate the protein. After vortex and centrifuge at 3700 rpm for 10 min, the supernatant was injected into LC-MS/MS for analysis.
In vitro microsomal clearance was estimated based on determination of elimination half-life (T1/2) of compounds disappearance from their initial concentrations. Peak area ratios of each compound (test or control) to IS was calculated. Ln (% Control) versus Incubation Time (min) curve was plotted, and the slope of a linear fitting line was calculated. Drug elimination rate constant k (min^−1), T1/2 (min), and in vitro intrinsic clearance CLint (mL·min^−1·mg^−1 proteins) was calculated according to the following equations: k=−slope T1/2=0.693/k CLint=k/Cprotein where Cprotein (mg·mL^−1) is the microsomal protein concentration in the incubation system. Test 3: Metabolic Stability Assay in Mouse Plasma
In this study, the metabolic stability of the compounds was assessed in mouse, rat, dog, monkey and human liver microsome according to the method disclosed in Test 2 of the Biological evaluation section.

## CCN1Cc2c(ccnc2N[C@@H](C)c2ccc(Oc3ccc(C)cc3)cc2)C1=O [Compound 16, (S)-2-ethyl-4-(1-(4-(p-tolyloxy)phenyl)ethylamino)-2,3-dihydro-1H-pyrrolo [3,4-c]pyridin-1-one]
dog, 0 h
  % remaining #1: 100%
  % remaining #2: 100%
  Ln (% remaining) #1: 4.61
  Ln (% remaining) #2: 4.61
  Mean Ln(% remaining): 4.61
dog, 5 min
  % remaining #1: 105%
  % remaining #2: 106%
  Ln (% remaining) #1: 4.65
  Ln (% remaining) #2: 4.66
  Mean Ln(% remaining): 4.66
dog, 0.25 h
  % remaining #1: 94.6%
  % remaining #2: 85.4%
  Ln (% remaining) #1: 4.55
  Ln (% remaining) #2: 4.45
  Mean Ln(% remaining): 4.50
dog, 0.5 h
  % remaining #1: 76.5%
  % remaining #2: 76.0%
  Ln (% remaining) #1: 4.34
  Ln (% remaining) #2: 4.33
  Mean Ln(% remaining): 4.33
dog, 1 h
  % remaining #1: 52.8%
  % remaining #2: 48.8%
  Ln (% remaining) #1: 3.97
  Ln (% remaining) #2: 3.89
  Mean Ln(% remaining): 3.93
dog
  microsomal CLint at 1 μM: 23 µL/min/mg
  half-life at 1 μM: 60.3 min
human
  stability in human liver microsome: medium stability
  microsomal CLint at 1 μM: 43.6 µL/min/mg
  half-life at 1 μM: 31.8 min
human, 0 h
  % remaining #1: 100%
  % remaining #2: 100%
  Ln (% remaining) #1: 4.61
  Ln (% remaining) #2: 4.61
  Mean Ln(% remaining): 4.61
human, 5 min
  % remaining #1: 87.1%
  % remaining #2: 90.5%
  Ln (% remaining) #1: 4.47
  Ln (% remaining) #2: 4.51
  Mean Ln(% remaining): 4.49
human, 0.25 h
  % remaining #1: 65.7%
  % remaining #2: 69.0%
  Ln (% remaining) #1: 4.18
  Ln (% remaining) #2: 4.23
  Mean Ln(% remaining): 4.21
human, 0.5 h
  % remaining #1: 51.7%
  % remaining #2: 50.5%
  Ln (% remaining) #1: 3.95
  Ln (% remaining) #2: 3.92
  Mean Ln(% remaining): 3.93
human, 1 h
  % remaining #1: 26.2%
  % remaining #2: 25.4%
  Ln (% remaining) #1: 3.27
  Ln (% remaining) #2: 3.23
  Mean Ln(% remaining): 3.25
monkey, 0 h
  % remaining #1: 100%
  % remaining #2: 100%
  Ln (% remaining) #1: 4.61
  Ln (% remaining) #2: 4.61
  Mean Ln(% remaining): 4.61
monkey, 5 min
  % remaining #1: 66.1%
  % remaining #2: 72.7%
  Ln (% remaining) #1: 4.19
  Ln (% remaining) #2: 4.29
  Mean Ln(% remaining): 4.24
monkey, 0.25 h
  % remaining #1: 32.5%
  % remaining #2: 35.4%
  Ln (% remaining) #1: 3.48
  Ln (% remaining) #2: 3.57
  Mean Ln(% remaining): 3.52
monkey, 0.5 h
  % remaining #1: 12.5%
  % remaining #2: 12.2%
  Ln (% remaining) #1: 2.53
  Ln (% remaining) #2: 2.51
  Mean Ln(% remaining): 2.52
monkey, 1 h
  % remaining #1: 2.13%
  % remaining #2: 2.06%
  Ln (% remaining) #1: 0.757
  Ln (% remaining) #2: 0.725
  Mean Ln(% remaining): 0.741
monkey
  microsomal CLint at 1 μM: 127 µL/min/mg
  half-life at 1 μM: 10.9 min
mouse, 0 h
  % remaining #1: 100%
  % remaining #2: 100%
  Ln (% remaining) #1: 4.61
  Ln (% remaining) #2: 4.61
  Mean Ln(% remaining): 4.61
mouse, 5 min
  % remaining #1: 88.1%
  % remaining #2: 94.2%
  Ln (% remaining) #1: 4.48
  Ln (% remaining) #2: 4.55
  Mean Ln(% remaining): 4.51
mouse, 0.25 h
  % remaining #1: 72.7%
  % remaining #2: 80.8%
  Ln (% remaining) #1: 4.29
  Ln (% remaining) #2: 4.39
  Mean Ln(% remaining): 4.34
mouse, 0.5 h
  % remaining #1: 31.0%
  % remaining #2: 43.8%
  Ln (% remaining) #1: 3.43
  Ln (% remaining) #2: 3.78
  Mean Ln(% remaining): 3.61
mouse, 1 h
  % remaining #1: 10.6%
  % remaining #2: 12.0%
  Ln (% remaining) #1: 2.36
  Ln (% remaining) #2: 2.48
  Mean Ln(% remaining): 2.42
mouse
  microsomal CLint at 1 μM: 77.4 µL/min/mg
  half-life at 1 μM: 17.9 min
rat, 0 h
  % remaining #1: 100%
  % remaining #2: 100%
  Ln (% remaining) #1: 4.61
  Ln (% remaining) #2: 4.61
  Mean Ln(% remaining): 4.61
rat, 5 min
  % remaining #1: 90.0%
  % remaining #2: 111%
  Ln (% remaining) #1: 4.50
  Ln (% remaining) #2: 4.71
  Mean Ln(% remaining): 4.61
rat, 0.25 h
  % remaining #1: 59.4%
  % remaining #2: 92.3%
  Ln (% remaining) #1: 4.09
  Ln (% remaining) #2: 4.53
  Mean Ln(% remaining): 4.31
rat, 0.5 h
  % remaining #1: 35.8%
  % remaining #2: 62.9%
  Ln (% remaining) #1: 3.58
  Ln (% remaining) #2: 4.14
  Mean Ln(% remaining): 3.86
rat, 1 h
  % remaining #1: 14.0%
  % remaining #2: 24.1%
  Ln (% remaining) #1: 2.64
  Ln (% remaining) #2: 3.18
  Mean Ln(% remaining): 2.91
rat
  microsomal CLint at 1 μM: 66.5 µL/min/mg
  half-life at 1 μM: 20.8 min

From patent US10752626B2, “Iso-citrate dehydrogenase (IDH) inhibitor” (SHANGHAI METON PHARMACEUTICAL CO., LTD, priority 2016, dated 2020)
